# Experimental data as given in patent US20230398130A1, “METHODS AND COMPOSITIONS FOR DIFFERENTIATING STEM CELLS” (Massachusetts Institute of Technology, priority 2020, published 2023).
# Tests used:
# [1] = test system: ISC-enriched organoids; test: Primary screen, 384-well 2.5-D organoid differentiation (ENR+CD, 6 days): carbachol-induced lysozyme secretion (LYZ.S); type: cell-based, murine; conditions: for Z.LYZ.S: standard z score; for Z.LYZ.S / SSMD.LYZ.S / Dose.FC.LYZ.S (log 2 fold change): primary screen; for SSMD.LYZ.S: strictly standardized mean difference; for Dose.FC.LYZ.S (log 2 fold change, carbachol-induced lysozyme secretion) / Dose.FC.LYZ.S (log 2 fold change): vs plate median; for Dose.FC.LYZ.S: ENR+CD, 6 days, FC vs plate median
# Description: (§1) High-throughput screening.
# [2] = test system: ISC-enriched organoids; test: Primary screen, 384-well 2.5-D organoid differentiation (ENR+CD, 6 days, Target Selective Inhibitor Library, vs whole-plate median): ATP (CellTiter-Glo 3D, CTG); conditions: for SSMD.CTG: strictly standardized mean difference; for Dose.FC.CTG (log 2 fold change, ATP) / Dose.FC.CTG (log 2 fold change): vs plate median; for Dose.FC.CTG: ENR+CD, 6 days, FC vs plate median
# [3] = test system: ISC-enriched organoids; test: Primary screen, 384-well 2.5-D organoid differentiation (ENR+CD, 6 days): basal lysozyme secretion (LYZ.NS); type: cell-based, murine; conditions: for SSMD.LYZ.NS: strictly standardized mean difference; for Dose.FC.LYZ.NS (log 2 fold change, basal lysozyme secretion) / Dose.FC.LYZ.NS (log 2 fold change): vs plate median; for Dose.FC.LYZ.NS: ENR+CD, 6 days, FC vs plate median; for Z.LYZ.NS: standard z score of FC
# Description: as §1
# [4] = 1st of the 4 dose lines of the treatment (dose not given)
# [5] = 2nd of the 4 dose lines of the treatment (dose not given)
# [6] = 3rd of the 4 dose lines of the treatment (dose not given)
# [7] = 4th of the 4 dose lines of the treatment (dose not given)
# [8] = primary screen, 1st of the 4 dose lines of the treatment (dose not given)
# [9] = primary screen, 2nd of the 4 dose lines of the treatment (dose not given)
# [10] = primary screen, 3rd of the 4 dose lines of the treatment (dose not given)
# [11] = primary screen, 4th of the 4 dose lines of the treatment (dose not given)
structure (smiles),measurement,setting,value
CCc1c2c(nc3ccc(OC(=O)N4CCC(N5CCCCC5)CC4)cc13)-c1cc3c(c(=O)n1C2)COC(=O)[C@]3(O)CC [Irinotecan],Z.LYZ.S,[1]; [4],−0.023
same,Z.LYZ.S,[1]; [5],−0.939
same,Z.LYZ.S,[1]; [6],−1.596
same,Z.LYZ.S,[1]; [7],−1.624
same,SSMD.LYZ.S,[1]; [4],−0.018
same,SSMD.LYZ.S,[1]; [5],−0.721
same,SSMD.LYZ.S,[1]; [6],−1.400
same,SSMD.LYZ.S,[1]; [7],−1.217
same,Z.CTG,"[2]; Dose 0.08 uM, primary screen, standard z score",−0.265
same,Z.CTG,"[2]; Dose 0.40 uM, primary screen, standard z score",−1.872
same,Z.CTG,"[2]; Dose 2.00 uM, primary screen, standard z score",−1.875
same,Z.CTG,"[2]; Dose 10.00 uM, primary screen, standard z score",−2.951
same,SSMD.CTG,[2]; [8],−0.378
same,SSMD.CTG,[2]; [9],−1.558
same,SSMD.CTG,[2]; [10],−1.491
same,SSMD.CTG,[2]; [11],−2.716
same,SSMD.LYZ.NS,[3]; [8],−0.217
same,SSMD.LYZ.NS,[3]; [9],−0.556
same,SSMD.LYZ.NS,[3]; [10],−1.415
same,SSMD.LYZ.NS,[3]; [11],−1.102
O=C(O[C@H]1C[C@H]2CC[C@@H](C1)[N+]21CCCC1)C(O)(c1ccccc1)c1ccccc1 [Trospium chloride],"Dose.FC.LYZ.S (log 2 fold change, carbachol-induced lysozyme secretion)",[1]; dose 0.08 uM,0.119
same,"Dose.FC.LYZ.S (log 2 fold change, carbachol-induced lysozyme secretion)",[1]; dose 0.40 uM,0.117
same,"Dose.FC.LYZ.S (log 2 fold change, carbachol-induced lysozyme secretion)",[1]; dose 2.00 uM,−0.008
same,"Dose.FC.LYZ.S (log 2 fold change, carbachol-induced lysozyme secretion)",[1]; dose 10.00 uM,0.084
same,Z.CTG (standard z score),[2]; dose 0.08 uM,0.199
same,"Dose.FC.CTG (log 2 fold change, ATP)",[2]; dose 0.08 uM,0.083
same,Z.CTG (standard z score),[2]; dose 0.40 uM,−0.073
same,"Dose.FC.CTG (log 2 fold change, ATP)",[2]; dose 0.40 uM,−0.031
same,Z.CTG (standard z score),[2]; dose 2.00 uM,0.477
same,"Dose.FC.CTG (log 2 fold change, ATP)",[2]; dose 2.00 uM,0.200
same,Z.CTG (standard z score),[2]; dose 10.00 uM,0.354
same,"Dose.FC.CTG (log 2 fold change, ATP)",[2]; dose 10.00 uM,0.148
same,Z.LYZ.NS (standard z score),[3]; dose 0.08 uM,1.470
same,"Dose.FC.LYZ.NS (log 2 fold change, basal lysozyme secretion)",[3]; dose 0.08 uM,0.169
same,Z.LYZ.NS (standard z score),[3]; dose 0.40 uM,1.895
same,"Dose.FC.LYZ.NS (log 2 fold change, basal lysozyme secretion)",[3]; dose 0.40 uM,0.218
same,Z.LYZ.NS (standard z score),[3]; dose 2.00 uM,−0.017
same,"Dose.FC.LYZ.NS (log 2 fold change, basal lysozyme secretion)",[3]; dose 2.00 uM,−0.002
same,Z.LYZ.NS (standard z score),[3]; dose 10.00 uM,0.885
same,"Dose.FC.LYZ.NS (log 2 fold change, basal lysozyme secretion)",[3]; dose 10.00 uM,0.102
O=C(Nc1ccncc1)c1cc([N+](=O)[O-])ccc1Cl [T0070907],Dose.FC.LYZ.S (log 2 fold change),[1]; Dose 0.08 uM,−0.005
same,Dose.FC.LYZ.S (log 2 fold change),[1]; Dose 0.40 uM,−0.001
same,Dose.FC.LYZ.S (log 2 fold change),[1]; Dose 2.00 uM,0.081
same,Dose.FC.LYZ.S (log 2 fold change),[1]; Dose 10.00 uM,−0.312
same,Z.CTG (standard z score),"[2]; Dose 0.08 uM, primary screen",0.267
same,Dose.FC.CTG (log 2 fold change),"[2]; Dose 0.08 uM, primary screen",0.112
same,Z.CTG (standard z score),"[2]; Dose 0.40 uM, primary screen",0.062
same,Dose.FC.CTG (log 2 fold change),"[2]; Dose 0.40 uM, primary screen",0.026
same,Z.CTG (standard z score),"[2]; Dose 2.00 uM, primary screen",0.119
same,Dose.FC.CTG (log 2 fold change),"[2]; Dose 2.00 uM, primary screen",0.050
same,Z.CTG (standard z score),"[2]; Dose 10.00 uM, primary screen",−1.806
same,Dose.FC.CTG (log 2 fold change),"[2]; Dose 10.00 uM, primary screen",−0.756
same,Z.LYZ.NS (standard z score),"[3]; Dose 0.08 uM, primary screen",0.084
same,Dose.FC.LYZ.NS (log 2 fold change),"[3]; Dose 0.08 uM, primary screen",0.010
same,Z.LYZ.NS (standard z score),"[3]; Dose 0.40 uM, primary screen",−0.029
same,Dose.FC.LYZ.NS (log 2 fold change),"[3]; Dose 0.40 uM, primary screen",−0.003
same,Z.LYZ.NS (standard z score),"[3]; Dose 2.00 uM, primary screen",0.373
same,Dose.FC.LYZ.NS (log 2 fold change),"[3]; Dose 2.00 uM, primary screen",0.043
same,Z.LYZ.NS (standard z score),"[3]; Dose 10.00 uM, primary screen",−1.897
same,Dose.FC.LYZ.NS (log 2 fold change),"[3]; Dose 10.00 uM, primary screen",−0.218
CN(C)C(=O)[C@H](O)[C@H](Cc1ccccc1)NC(=O)c1cc2cc(Cl)ccc2[nH]1 [CP-91149],Dose.FC.LYZ.S,[1]; Dose 0.08 uM,0.186 log 2 fold change
same,Dose.FC.LYZ.S,[1]; Dose 0.40 uM,0.055 log 2 fold change
same,Dose.FC.LYZ.S,[1]; Dose 2.00 uM,−0.121 log 2 fold change
same,Dose.FC.LYZ.S,[1]; Dose 10.00 uM,−0.097 log 2 fold change
same,Dose.FC.CTG,[2]; Dose 0.08 uM,0.031 log 2 fold change
same,Z.CTG,"[2]; Dose 0.08 uM, standard z score of FC",0.073
same,Dose.FC.CTG,[2]; Dose 0.40 uM,−0.023 log 2 fold change
same,Z.CTG,"[2]; Dose 0.40 uM, standard z score of FC",−0.056
same,Dose.FC.CTG,[2]; Dose 2.00 uM,−0.098 log 2 fold change
same,Z.CTG,"[2]; Dose 2.00 uM, standard z score of FC",−0.234
same,Dose.FC.CTG,[2]; Dose 10.00 uM,−0.100 log 2 fold change
same,Z.CTG,"[2]; Dose 10.00 uM, standard z score of FC",−0.239
same,Dose.FC.LYZ.NS,[3]; Dose 0.08 uM,0.177 log 2 fold change
same,Z.LYZ.NS,[3]; Dose 0.08 uM,1.538
same,Dose.FC.LYZ.NS,[3]; Dose 0.40 uM,−0.033 log 2 fold change
same,Z.LYZ.NS,[3]; Dose 0.40 uM,−0.289
same,Dose.FC.LYZ.NS,[3]; Dose 2.00 uM,0.028 log 2 fold change
same,Z.LYZ.NS,[3]; Dose 2.00 uM,0.245
same,Dose.FC.LYZ.NS,[3]; Dose 10.00 uM,−0.057 log 2 fold change
same,Z.LYZ.NS,[3]; Dose 10.00 uM,−0.498
